In patent publication US20240287138A1, “CYCLIC PEPTIDES FOR INHIBITING TNF RECEPTOR 1 ACTIVITY” (Merck Sharp & Dohme LLC, priority 2023, published 2024) one finds Kd and IC50 data, which are given here for nine compounds.

The target in test [1] is T1, human soluble TNFR1 (sTNFR1) (Homo sapiens, UniProt P19438).
T1 construct: made in house; host or cells: Sf21 (baculovirus)
T1 sequence (P19438 with tags, fused parts or gaps): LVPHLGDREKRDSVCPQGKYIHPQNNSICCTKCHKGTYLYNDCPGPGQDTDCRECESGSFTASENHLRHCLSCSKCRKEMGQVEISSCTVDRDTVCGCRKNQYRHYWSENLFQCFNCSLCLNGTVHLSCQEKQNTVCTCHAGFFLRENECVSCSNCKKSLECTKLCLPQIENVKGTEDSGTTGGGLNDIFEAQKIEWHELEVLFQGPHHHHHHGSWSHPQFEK
Kind of test: Human sTNFR1-peptide displacement assay (LanthaScreen Eu TR-FRET binding assay). The procedure, abridged:
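Readout is the 665/615 nm TR-FRET ratio (Eu anti-His donor, streptavidin-Alexa647 acceptor), normalized to DMSO and saturating displacer, fit by Morrison-based five-parameter logistic for Kd^app. His-tagged sTNFR1 (1-211) prebound to 100 nM biotinylated peptide SEQ ID NO.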

Test [2] has as its target T2, TNFα-induced NF-κB signal transduction pathway (TNFR1 signaling) in THP-1 cells (Homo sapiens, UniProt P19438).
T2 sequence (P19438 30-455): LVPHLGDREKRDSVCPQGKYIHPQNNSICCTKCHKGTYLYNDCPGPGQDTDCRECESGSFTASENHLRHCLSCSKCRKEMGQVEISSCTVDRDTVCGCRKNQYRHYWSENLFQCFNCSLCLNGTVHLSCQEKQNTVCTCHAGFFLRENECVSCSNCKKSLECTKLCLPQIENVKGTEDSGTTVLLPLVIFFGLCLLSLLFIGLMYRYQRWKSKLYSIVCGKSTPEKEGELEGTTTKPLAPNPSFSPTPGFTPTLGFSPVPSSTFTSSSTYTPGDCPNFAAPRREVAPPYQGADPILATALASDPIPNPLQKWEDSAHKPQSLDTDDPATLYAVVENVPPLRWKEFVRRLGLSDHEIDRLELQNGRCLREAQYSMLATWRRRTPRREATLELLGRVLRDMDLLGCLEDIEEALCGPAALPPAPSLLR
Kind of test: THP-1 Lucia NF-κB reporter cell assay, inhibition of TNFα-induced NF-κB signaling. Type of test: cell-based. The settings on record: THP-1 NF-κB Lucia reporter cells, 10 ng/mL TNFα, 16-18 h, secreted luciferase, read-out: THP-1 IC50. Summed up: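 THP-1 Lucia NF-κB cells, 20k/well, no selection antibiotics; peptide pre-inc 1 h 37 °C; + recombinant human TNFα 10 ng/mL final; o.n.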

Like-named read-outs stand apart in the source and are kept apart here. Numbered stars: 1 amine (or outer) side, 2 acyl side, 3 side chain; on linkers, the order of the positions; unused ones are H or OH. Bridge positions count the residues as written; N and C are the ends. Square brackets hold non-standard residues; d marks the D form. Peptide text beside a SMILES is read from it. * marks the point of attachment. Trp(βS-Me,7-OMe) = COc1cccc2c([C@H](C)[C@H](N)C(=O)O)c[nH]c12; Phe(4-SO2NH2) = N[C@@H](Cc1ccc(S(N)(=O)=O)cc1)C(=O)O; Trp(7-CN) = N#Cc1cccc2c(C[C@H](N)C(=O)O)c[nH]c12; Trp(7-Cl) = N[C@@H](Cc1c[nH]c2c(Cl)cccc12)C(=O)O; X55 = O=C([C@H]1C[C@H](c2nn[nH]n2)CN1[*:1])[*:2]; Phe(4-CONH2) = NC(=O)c1ccc(C[C@H](N)C(=O)O)cc1; Phe(4-COOH) = N[C@@H](Cc1ccc(C(=O)O)cc1)C(=O)O; Trp(7-aza) = N[C@@H](Cc1c[nH]c2ncccc12)C(=O)O; dPro(trans-4-F) = O=C(O)[C@H]1C[C@H](F)CN1; 3Pal(6-OMe) = COc1ccc(C[C@H](N)C(=O)O)cn1; Pip(5R-OH) = O=C(O)[C@@H]1CC[C@@H](O)CN1; αMeW = C[C@](N)(Cc1c[nH]c2ccccc12)C(=O)O; X1 = O=C([C@@H]1CC[C@H](N[*:1])C1)[*:2]; X45 = O=C([C@H]1CC2(CC2)CN1[*:1])[*:2]; Val(3-OH) = CC(C)(O)[C@H](N)C(=O)O; Pip(4-aza) = O=C(O)[C@@H]1CNCCN1; 4Pal = N[C@@H](Cc1ccncc1)C(=O)O; NMeE = CN[C@@H](CCC(=O)O)C(=O)O; dHyp = O=C(O)[C@H]1C[C@H](O)CN1; αMeS = C[C@](N)(CO)C(=O)O; Carboxymethyl = O=C(O)C*; Nle = CCCC[C@H](N)C(=O)O; Dab = NCC[C@H](N)C(=O)O; Me2NCH2CH2 = CN(C)CC*; Sar = CNCC(=O)O

Usually IC50 stands for the concentration at which inhibition is half-maximal. As for `CCCC[C@@H]1NC(=O)[C@@H]2CC[C@@H](C2)NC(=O)[C@H]([C@@H](C)c2c[nH]c3c(OC)cccc23)NC(=O)CN(C)C(=O)[C@H](Cc2ccc(OCCN(C)C)cc2)NC(=O)[C@H](Cc2ccc(C(=O)O)cc2)NC(=O)[C@](C)(CO)NC(=O)[C@H](Cc2c[nH]c3c(Cl)cccc23)NC(=O)[C@H](Cc2ccncc2)NC(=O)[C@H](CC(N)=O)NC(=O)[C@H](CCC(=O)O)N(C)C(=O)[C@H](Cc2c[nH]c3ccccc23)NC(=O)[C@@H]2CNCCN2C(=O)[C@H](Cc2ccncc2)NC1=O` [SEQ ID NO. 195] (cyclo([4Pal][Trp(7-Cl)][αMeS][Phe(4-COOH)]Y(Me2NCH2CH2)[Sar][Trp(βS-Me,7-OMe)][X1][Nle][4Pal][Pip(4-aza)]W[NMeE]N)), the Kd in test [1] was 0.28 nM. Moreover, the IC50 in test [2] was 1.6 nM.

Consider `CCCC[C@@H]1NC(=O)[C@@H]2CC[C@@H](C2)NC(=O)[C@H]([C@@H](C)c2c[nH]c3c(OC)cccc23)NC(=O)CN(C)C(=O)[C@H](Cc2ccc(C(=O)O)cc2)NC(=O)[C@H](Cc2ccc(S(N)(=O)=O)cc2)NC(=O)[C@](C)(CO)NC(=O)[C@H](Cc2c[nH]c3c(C#N)cccc23)NC(=O)[C@H](Cc2ccncc2)NC(=O)[C@H](CC(N)=O)NC(=O)[C@H]2C[C@H](OCC(=O)O)CN2C(=O)[C@H](Cc2c[nH]c3ncccc23)NC(=O)[C@@H]2CC[C@@H](O)CN2C(=O)[C@H](Cc2ccncc2)NC1=O` [SEQ ID NO. 31] (cyclo([4Pal][Trp(7-CN)][αMeS][Phe(4-SO2NH2)][Phe(4-COOH)][Sar][Trp(βS-Me,7-OMe)][X1][Nle][4Pal][Pip(5R-OH)][Trp(7-aza)][dHyp](Carboxymethyl)N)), for which, in test [1] (displacement of biotinylated peptide SEQ ID NO. 1 from sTNFR1, 20 point titration, 5-parameter fit based on Morrison equation (tight binding), read-out: TR-FRET Kd^app), the Kd was determined as 0.04 nM. Further, the IC50 in test [2] amounted to 0.4 nM.

`CCCC[C@@H]1NC(=O)[C@@H]2CC[C@@H](C2)NC(=O)[C@H]([C@@H](C)c2c[nH]c3c(OC)cccc23)NC(=O)CN(C)C(=O)[C@H](Cc2ccc(C(=O)O)cc2)NC(=O)[C@H](Cc2ccc(C(N)=O)cc2)NC(=O)[C@](C)(CO)NC(=O)[C@H](Cc2c[nH]c3c(C#N)cccc23)NC(=O)[C@H](Cc2ccc(C(=O)O)cc2)NC(=O)[C@H](CC(N)=O)NC(=O)[C@H]2C[C@H](OCC(=O)O)CN2C(=O)[C@H](Cc2c[nH]c3ncccc23)NC(=O)[C@@H]2CC[C@@H](O)CN2C(=O)[C@H](Cc2ccncc2)NC1=O` [SEQ ID NO. 284] (cyclo([4Pal][Pip(5R-OH)][Trp(7-aza)][dHyp](Carboxymethyl)N[Phe(4-COOH)][Trp(7-CN)][αMeS][Phe(4-CONH2)][Phe(4-COOH)][Sar][Trp(βS-Me,7-OMe)][X1][Nle])) displayed a Kd in test [1] of 0.09 nM. In addition, the IC50 in test [2] (listed as 284) is 0.8 nM.

On to `CCCC[C@@H]1NC(=O)CSC[C@@H](C(N)=O)NC(=O)[C@H]([C@@H](C)c2c[nH]c3c(OC)cccc23)NC(=O)CN(C)C(=O)[C@H](Cc2ccc(O)cc2)NC(=O)[C@H](Cc2ccc(C(=O)O)cc2)NC(=O)[C@](C)(CO)NC(=O)[C@H](Cc2c[nH]c3c(Cl)cccc23)NC(=O)[C@H](Cc2ccncc2)NC(=O)[C@H](CC(N)=O)NC(=O)[C@H]2C[C@H](F)CN2C(=O)[C@H](Cc2c[nH]c3ccccc23)NC(=O)[C@@H]2CNCCN2C(=O)[C@H](Cc2ccncc2)NC1=O` [SEQ ID NO. 279] ({CH2CO}-[Nle][4Pal][Pip(4-aza)]W[dPro(trans-4-F)]N[4Pal][Trp(7-Cl)][αMeS][Phe(4-COOH)]Y[Sar][Trp(βS-Me,7-OMe)]C-NH2; thioether N-14), for which the Kd in test [1] was 0.38 nM. Besides, the half-maximal inhibitory concentration (IC50) in test [2] was 1.4 nM.

Take `CCCC[C@@H]1NC(=O)CSC[C@@H](C(N)=O)NC(=O)[C@H]([C@@H](C)c2c[nH]c3c(OC)cccc23)NC(=O)CN(C)C(=O)[C@H](Cc2ccc(O)cc2)NC(=O)[C@H](Cc2ccc(C(=O)O)cc2)NC(=O)[C@](C)(CO)NC(=O)[C@H](Cc2c[nH]c3c(Cl)cccc23)NC(=O)[C@H](Cc2ccncc2)NC(=O)[C@H](CC(N)=O)NC(=O)[C@H]2CC3(CC3)CN2C(=O)[C@H](Cc2c[nH]c3ccccc23)NC(=O)[C@@H]2CNCCN2C(=O)[C@H](Cc2ccncc2)NC1=O` [SEQ ID NO. 167] ({CH2CO}-[Nle][4Pal][Pip(4-aza)]W[X45]N[4Pal][Trp(7-Cl)][αMeS][Phe(4-COOH)]Y[Sar][Trp(βS-Me,7-OMe)]C-NH2; thioether N-14): the Kd in test [1] came out at 0.48 nM. Also, the IC50 in test [2] was determined as 2.6 nM.

In the case of `CCCC[C@@H]1NC(=O)CSC[C@@H](C(N)=O)NC(=O)[C@H]([C@@H](C)c2c[nH]c3c(OC)cccc23)NC(=O)CN(C)C(=O)[C@H](Cc2ccc(O)cc2)NC(=O)[C@H](Cc2ccc(C(=O)O)cc2)NC(=O)[C@](C)(CO)NC(=O)[C@H](Cc2c[nH]c3c(Cl)cccc23)NC(=O)[C@H](Cc2ccncc2)NC(=O)[C@H](CC(N)=O)NC(=O)[C@H](CCC(=O)O)N(C)C(=O)[C@H](Cc2c[nH]c3ncccc23)NC(=O)[C@H](C(C)(C)O)NC(=O)[C@H](Cc2ccc(C(N)=O)cc2)NC1=O` [SEQ ID NO. 164] ({CH2CO}-[Nle][Phe(4-CONH2)][Val(3-OH)][Trp(7-aza)][NMeE]N[4Pal][Trp(7-Cl)][αMeS][Phe(4-COOH)]Y[Sar][Trp(βS-Me,7-OMe)]C-NH2; thioether N-14), in test [1], the IC50 was 0.6 nM and the Kd turned out to be 0.5 nM. Further, in test [2], the IC50 amounted to 3.6 nM.

As for `CCCC[C@@H]1NC(=O)[C@@H]2CC[C@@H](C2)NC(=O)[C@H]([C@@H](C)c2c[nH]c3c(OC)cccc23)NC(=O)CN(C)C(=O)[C@H](Cc2ccc(C(=O)O)cc2)NC(=O)[C@H](Cc2ccc(C(N)=O)cc2)NC(=O)[C@](C)(CO)NC(=O)[C@H](Cc2c[nH]c3c(Cl)cccc23)NC(=O)[C@H](Cc2ccc(C(=O)O)cc2)NC(=O)[C@H](CC(N)=O)NC(=O)[C@H]2C[C@H](c3nn[nH]n3)CN2C(=O)[C@H](Cc2c[nH]c3ccccc23)NC(=O)[C@@H]2CC[C@@H](O)CN2C(=O)[C@H](Cc2ccncc2)NC1=O` [SEQ ID NO. 11] (cyclo([4Pal][Pip(5R-OH)]W[X55]N[Phe(4-COOH)][Trp(7-Cl)][αMeS][Phe(4-CONH2)][Phe(4-COOH)][Sar][Trp(βS-Me,7-OMe)][X1][Nle])), the Kd in test [1] turned out to be 0.07 nM. Besides, the IC50 in test [2] was 0.7 nM.

`CCCC[C@@H]1NC(=O)CSC[C@@H](C(N)=O)NC(=O)[C@](C)(Cc2c[nH]c3ccccc23)NC(=O)CN(C)C(=O)[C@H](Cc2ccc(O)cc2)NC(=O)[C@H](Cc2ccc(C(=O)O)cc2)NC(=O)[C@](C)(CO)NC(=O)[C@H](Cc2c[nH]c3c(Cl)cccc23)NC(=O)[C@H](Cc2ccncc2)NC(=O)[C@H](CC(N)=O)NC(=O)[C@H](CCC(=O)O)N(C)C(=O)[C@H](Cc2c[nH]c3ncccc23)NC(=O)[C@H](CCN)NC(=O)[C@H](Cc2ccncc2)NC1=O` [SEQ ID NO. 277] ({CH2CO}-[Nle][4Pal][Dab][Trp(7-aza)][NMeE]N[4Pal][Trp(7-Cl)][αMeS][Phe(4-COOH)]Y[Sar][αMeW]C-NH2; thioether N-14): the IC50 in test [1] turned out to be 1.12 nM; in test [2], 3 nM.

`CCCC[C@@H]1NC(=O)[C@@H]2CC[C@@H](C2)NC(=O)[C@H]([C@@H](C)c2c[nH]c3c(OC)cccc23)NC(=O)CN(C)C(=O)[C@H](Cc2ccc(O)cc2)NC(=O)[C@H](Cc2ccc(C(=O)O)cc2)NC(=O)[C@](C)(CO)NC(=O)[C@H](Cc2c[nH]c3c(Cl)cccc23)NC(=O)[C@H](Cc2ccncc2)NC(=O)[C@H](CC(N)=O)NC(=O)[C@H](CCC(=O)O)N(C)C(=O)[C@H](Cc2c[nH]c3ccccc23)NC(=O)[C@@H]2CNCCN2C(=O)[C@H](Cc2ccc(OC)nc2)NC1=O` [SEQ ID NO. 241] (cyclo([4Pal][Trp(7-Cl)][αMeS][Phe(4-COOH)]Y[Sar][Trp(βS-Me,7-OMe)][X1][Nle][3Pal(6-OMe)][Pip(4-aza)]W[NMeE]N)) gave a Kd in test [1] of 0.24 nM. In addition, the IC50 in test [2] was 1.4 nM.
